From publication PMC8041284, “Tunable Methacrylamides for Covalent Ligand Directed Release Chemistry” (Journal of the American Chemical Society, 2021)
Like-named read-outs stand apart in the source and are kept apart here.

Target: BTK (Homo sapiens, UniProt Q06187)
Experiment: biochemical
[1] = read-out: BTK inhibition (%), 0.75 uM BTK, […] probe 3l, 15 min preincubation

Sequence of BTK (Q06187 402-655 limits assumed): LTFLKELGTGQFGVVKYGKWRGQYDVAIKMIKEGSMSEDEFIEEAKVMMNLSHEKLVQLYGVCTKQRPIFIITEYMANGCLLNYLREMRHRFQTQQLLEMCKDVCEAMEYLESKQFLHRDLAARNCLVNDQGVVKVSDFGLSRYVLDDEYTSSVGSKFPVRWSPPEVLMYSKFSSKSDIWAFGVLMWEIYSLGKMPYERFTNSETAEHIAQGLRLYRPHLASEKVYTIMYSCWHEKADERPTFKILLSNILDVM

## COc1ccc(-c2oc3c(CC=C(C)C)c(O)cc(O)c3c(=O)c2O)cc1 [PCM-0216376]
[1]
  inhibition at 10 µM: 3.9%

## O=C1CCN(c2ccccc2)N1 [PCM-0216111]
[1]
  inhibition at 10 µM: -12.4%

## NC1=NC(=O)/C(=C/c2ccc(O)cc2)S1 [PCM-0215596]
[1]
  inhibition at 10 µM: 17%

## C/C(=C(/CCOC(=O)C(C)C)SS/C(CCOC(=O)C(C)C)=C(\C)N(C=O)Cc1cnc(C)nc1N)N(C=O)Cc1cnc(C)nc1N [PCM-0216636]
[1]
  inhibition at 10 µM: -16.2%

## OCCn1cc(-c2ccc3c(c2)CC/C3=N\O)c(-c2ccncc2)n1 [PCM-0094883]
[1]
  inhibition at 10 µM: 16.6%

## O=C(Cc1cccc(OC(F)(F)F)c1)Nc1ccc(CCCCc2nnc(NC(=O)Cc3ccccn3)s2)nn1 [PCM-0215461]
[1]
  inhibition at 10 µM: 0%

## CC(C)CC(=O)Nc1n[nH]c2c1CN(C(=O)C1CCN(C)CC1)C2(C)C [PCM-0095172]
[1]
  inhibition at 10 µM: 17.9%

## N#C[C@@H]1CCCN1C(=O)CNC12CC3CC(CC(O)(C3)C1)C2 [PCM-0095499]
[1]
  inhibition at 10 µM: 1.6%

## C=CC[C@]1(O)CC[C@H]2[C@@H]3CCC4=CC(=O)CCC4=C3C=C[C@@]21C [PCM-0095614]
[1]
  inhibition at 10 µM: -4.7%

## O=C(NCCCNc1nc(Nc2cccc(CN3CCOCC3)c2)ncc1C1CC1)C1CCC1 [PCM-0215642]
[1]
  inhibition at 10 µM: 21.6%

## CCn1cc(C(=O)O)c(=O)c2cc(F)c(N3CCNCC3)cc21 [PCM-0085898]
[1]
  inhibition at 10 µM: -12.8%

## COc1cccc(-c2cc(F)ccc2[C@H]2Cc3nc(N)nc(C)c3C(=O)N2)n1 [PCM-0215352]
[1]
  inhibition at 10 µM: 2.3%

## O=c1n(CCCN2CCN(c3cccc(Cl)c3)CC2)nc2ccccn12 [PCM-0064865]
[1]
  inhibition at 10 µM: -0.9%

## CCCCCCCCC[C@H](O)CC(=O)CCc1ccc(O)c(OC)c1 [PCM-0216384]
[1]
  inhibition at 10 µM: -10.8%

## CCN(CC)c1ccc(/C=N/NC(=O)c2ccc(O)cc2)cc1 [PCM-0216144]
[1]
  inhibition at 10 µM: 0%

## C[C@@H]1CC[C@@]2(NC1)O[C@H]1C[C@H]3[C@@H]4CC=C5C[C@@H](O[C@@H]6O[C@H](CO)[C@@H](O[C@@H]7O[C@@H](C)[C@H](O)[C@@H](O)[C@H]7O)[C@H](O)[C@H]6O)CC[C@]5(C)[C@H]4CC[C@]3(C)[C@H]1[C@@H]2C [PCM-0216606]
read-out: BTK inhibition (%)
  inhibition at 10 µM: -6.9%

## CC(C)N(CCCCOCC(=O)NS(C)(=O)=O)c1cnc(-c2ccccc2)c(-c2ccccc2)n1 [PCM-0214894]
[1]
  inhibition at 10 µM: 11.7%

## O=C(c1cccc(Br)c1)N1CCC(N2CCCC2)CC1 [PCM-0216085]
[1]
  inhibition at 10 µM: -17.8%

## CC(C)[C@H](CO)Nc1nc(Nc2cccc(Cl)c2)c2ncn(C(C)C)c2n1 [PCM-0215464]
[1]
  inhibition at 10 µM: 50.3%

## c1cc2c(c3c1CC1c4cc5c(cc4CCN1C3)OCO5)OCO2 (stereo not drawn) [PCM-0216476]
[1]
  inhibition at 10 µM: -13.9%

## C/C=C(/C)C(=O)OC(C)(C)[C@@H]1Cc2c(ccc3ccc(=O)oc23)O1 [PCM-0216607]
[1]
  inhibition at 10 µM: -23.9%

## Cc1cc(C)c(S(=O)(=O)n2cc(C)cc2C)c(C)c1 [PCM-0215336]
[1]
  inhibition at 10 µM: -13.1%

## COc1ccc(S(=O)(=O)NCc2ccc(C(=O)NCCc3ccc(Cl)cn3)cc2)cc1 [PCM-0215817]
[1]
  inhibition at 10 µM: -22.4%

## COC(=O)[C@H]1[C@H]2C[C@@H]3c4[nH]c5cc(OC)ccc5c4CCN3C[C@H]2C[C@@H](OC(=O)c2cc(OC)c(OC)c(OC)c2)[C@@H]1OC [PCM-0214638]
[1]
  inhibition at 10 µM: 35%

## O=C(NCc1ccccc1)c1csc(Nc2ccncn2)n1 [PCM-0095135]
[1]
  inhibition at 10 µM: -9%

## CC(C)Cc1ccc([C@@H](C)C(=O)NS(C)(=O)=O)cc1 [PCM-0215882]
[1]
  inhibition at 10 µM: -24.8%

## N#CCC1(n2cc(-c3ncnc4[nH]ccc34)cn2)CN(C2CCN(C(=O)c3ccnc(C(F)(F)F)c3F)CC2)C1 [PCM-0216009]
[1]
  inhibition at 10 µM: 12.4%

## OC(CN1CCN(c2cccc(Cl)c2)CC1)C(c1ccccc1)c1ccccc1 (stereo not drawn) [PCM-0095352]
[1]
  inhibition at 10 µM: 37.4%

## Cc1ccc(-n2nc(C(C)(C)C)cc2NC(=O)NCc2cc(F)ccc2Oc2ccc3c(cnn3CCO)c2)cc1 [PCM-0215475]
[1]
  inhibition at 10 µM: 28.3%

## C[C@H](CSC(=O)c1ccccc1)C(=O)N1C[C@@H](Sc2ccccc2)C[C@H]1C(=O)O [PCM-0216252]
[1]
  inhibition at 10 µM: -43.2%

## CCOC(CN1CCN(CC(C)C(=O)c2ccccc2)CC1)c1ccccc1 (stereo not drawn) [PCM-0215205]
[1]
  inhibition at 10 µM: -6.8%

## CCO[C@H]1O[C@@H]2O[C@@]3(C)CC[C@H]4[C@H](C)CC[C@@H]([C@H]1C)[C@@]24OO3 [PCM-0214993]
[1]
  inhibition at 10 µM: -16.3%

## Cc1nc(Nc2ccc(F)cc2)nc(N2CCc3ccccc3C2C)c1C (stereo not drawn) [PCM-0216015]
[1]
  inhibition at 10 µM: 79.3%

## CN[C@H](CC(=O)O)C(=O)O [PCM-0065539]
[1]
  inhibition at 10 µM: -10%

## CC(C)C(=O)Nc1ccc([N+](=O)[O-])c(C(F)(F)F)c1 [PCM-0065325]
[1]
  inhibition at 10 µM: -3.4%

## COc1cc(C(C)=O)ccc1O [PCM-0094831]
[1]
  inhibition at 10 µM: 9%

## O=C(O)c1ccccc1O [PCM-0090179]
[1]
  inhibition at 10 µM: -16.3%

## C[C@H]1O[C@H](O[C@H]2[C@H](O)[C@@H](O)[C@@H](O[C@@H]([C@H](O)[C@@H](O)C=O)[C@H](O)CO)O[C@@H]2CO)[C@H](O)[C@@H](O)[C@@H]1N[C@H]1C=C(CO)[C@@H](O)[C@H](O)[C@H]1O [PCM-0214720]
[1]
  inhibition at 10 µM: -7%

## Nc1nc(NCCNc2ncc(-n3ccnc3)c(-c3ccc(Cl)cc3Cl)n2)ccc1[N+](=O)[O-] [PCM-0095481]
[1]
  inhibition at 10 µM: 20.7%

## Nc1ccc(/C=C/C(=O)NCc2cc3cc(-c4ccc(C(=O)N5CCC(F)(F)CC5)cc4)cc(-c4ccc(F)cc4)c3o2)cn1 [PCM-0216035]
[1]
  inhibition at 10 µM: 31.7%

## O=C(/C=C/c1ccc(O)c2c1[C@H](C(=O)O)[C@@H](c1ccc(O)c(O)c1)O2)O[C@H](Cc1ccc(O)c(O)c1)C(=O)O [PCM-0216504]
[1]
  inhibition at 10 µM: 8.5%

## O=C(O)c1nn(Cc2ccc(Cl)cc2Cl)c2ccccc12 [PCM-0065622]
[1]
  inhibition at 10 µM: 11%

## NC(=O)c1ccc[n+]([C@@H]2O[C@H](COP(=O)([O-])O)[C@@H](O)[C@H]2O)c1 [PCM-0216232]
[1]
  inhibition at 10 µM: -6.8%

## CC1(C)O[C@@H]2C[C@H]3[C@@H]4C[C@H](F)C5=CC(=O)C=C[C@]5(C)[C@@]4(F)[C@@H](O)C[C@]3(C)[C@]2(C(=O)CO)O1 [PCM-0086270]
[1]
  inhibition at 10 µM: -17.1%

## O=C1CCc2ccc(OCCCCN3CCN(c4cccc(Cl)c4Cl)CC3)cc2N1 [PCM-0086268]
[1]
  inhibition at 10 µM: -10.9%

## CC1(C)C=Cc2cc(-c3coc4cc(O)ccc4c3=O)ccc2O1 [PCM-0216531]
[1]
  inhibition at 10 µM: 28.6%

## Cc1cnc(C(=O)O)c[n+]1[O-] [PCM-0086103]
[1]
  inhibition at 10 µM: 3.1%

## O=c1[nH]nc2c3c(cccc13)NC(CN1Cc3ccccc3C1)=N2 [PCM-0215799]
[1]
  inhibition at 10 µM: 0.8%

## CC1OC2OC3C(OCC(O)C3O)OC(=O)C34CCC(C)(C)CC3C3=CCC5C6(C)CC(O)C(OC7OC(CO)C(O)C(O)C7OC7OCC(OC(=O)CC(C)(O)CC(=O)OC1C(OC1OCC(O)C(O)C1O)C2O)C(O)C7O)C(C)(CO)C6CCC5(C)C3(C)CC4O (stereo not drawn) [PCM-0216328]
[1]
  inhibition at 10 µM: -1.5%

## O=C(/C=C\n1cnc(-c2cc(C(F)(F)F)cc(C(F)(F)F)c2)n1)N1CC(F)(F)C1 [PCM-0095738]
[1]
  inhibition at 10 µM: -16.2%

## C[C@@H]1CCC=C2C(=O)C[C@H]3OOC(C)(C)[C@H]3[C@]21C [PCM-0216386]
[1]
  inhibition at 10 µM: 7.7%

## C[C@@]1(F)[C@H](O)[C@@H](CO)O[C@H]1n1ccc(=O)[nH]c1=O [PCM-0216055]
[1]
  inhibition at 10 µM: -20%

## COc1c(-c2ccc3cc(NS(C)(=O)=O)ccc3c2)cc(-n2ccc(=O)[nH]c2=O)cc1C(C)(C)C [PCM-0216081]
[1]
  inhibition at 10 µM: 73.4%

## CNC(=O)c1c(C)oc2cc(Oc3ncnc4cc(OC)c(OC)cc34)ccc12 [PCM-0216648]
[1]
  inhibition at 10 µM: 1.4%

## CCCCC(C)(O)C/C=C/[C@H]1[C@H](O)CC(=O)[C@@H]1CCCCCCC(=O)OC (stereo partly drawn) [PCM-0215257]
[1]
  inhibition at 10 µM: -7.8%

## CC(C)n1nc(-c2ccc3oc(N)nc3c2)c2c(N)ncnc21 [PCM-0095423]
[1]
  inhibition at 10 µM: -6.2%

## O=C(O)Cn1nnc(-c2cc(N3CCC(Oc4cc(F)ccc4Br)CC3)no2)n1 [PCM-0094989]
[1]
  inhibition at 10 µM: 4.1%

## C[C@H](NC(=O)/C(C#N)=C/c1cccc(Br)n1)c1ccccc1 [PCM-0095390]
[1]
  inhibition at 10 µM: 12.4%

## O=C[C@H](O)[C@@H](O)[C@H](O[C@H]1O[C@H](CO)[C@@H](O[C@H]2O[C@H](CO)[C@@H](O[C@H]3O[C@H](CO)[C@@H](O[C@H]4O[C@H](CO)[C@@H](O)[C@H](O)[C@H]4O)[C@H](O)[C@H]3O)[C@H](O)[C@H]2O)[C@H](O)[C@H]1O)[C@H](O)CO [PCM-0216396]
[1]
  inhibition at 10 µM: 3.1%

## CC(C)=CCc1cc2c(cc1O)O[C@H](c1ccc(O)cc1)CC2=O [PCM-0216180]
[1]
  inhibition at 10 µM: 54.1%

## CCc1cnn2c(NCc3ccc[n+]([O-])c3)cc(N3CCCC[C@H]3CCO)nc12 [PCM-0095529]
[1]
  inhibition at 10 µM: -7.6%

## N#CC(C#N)=NNc1ccc(OC(F)(F)F)cc1 [PCM-0215645]
[1]
  inhibition at 10 µM: 52.5%

## CCn1c2ccccc2c2cc(CNCc3ccccc3OC)ccc21 [PCM-0215626]
[1]
  inhibition at 10 µM: -27.8%

## COc1cc(O)c2c(c1)oc(=O)c1c3cc(O)c(O)cc3oc21 [PCM-0216602]
[1]
  inhibition at 10 µM: 47.9%

## OC1CC2CCC(C1)N2 (stereo not drawn) [PCM-0215141]
[1]
  inhibition at 10 µM: -1.6%

## C#CC[C@H](c1nc2cc(Cl)ccc2c(=O)n1Nc1ccccc1)N(CCCN)C(=O)c1cccc(Cl)c1F [PCM-0095802]
[1]
  inhibition at 10 µM: 52.5%

## c1ccc(CNc2nc(NCc3ccccc3)c3ccccc3n2)cc1 [PCM-0215216]
[1]
  inhibition at 10 µM: 10.8%

## CC(C)c1cc(-c2n[nH]c(=O)n2-c2ccc3c(ccn3C)c2)c(O)cc1O [PCM-0094991]
[1]
  inhibition at 10 µM: 12.4%

## CCCCCCCC(=O)CCc1ccc(O)c(OC)c1 [PCM-0216195]
[1]
  inhibition at 10 µM: -8.3%

## Cc1ccc(NC(=O)c2cccc(C(C)(C)C#N)c2)cc1Nc1ccc2ncn(C)c(=O)c2c1 [PCM-0095483]
[1]
  inhibition at 10 µM: 44.1%

## OC(c1ccccc1)(c1ccccc1)C1CCNCC1 [PCM-0085781]
read-out: BTK inhibition (%)
  inhibition at 10 µM: -14%

## Nc1ccc(O)cc1 [PCM-0216110]
[1]
  inhibition at 10 µM: 82.6%

## Cc1ccsc1C(=CCCN1CCC[C@@H](C(=O)O)C1)c1sccc1C [PCM-0214833]
[1]
  inhibition at 10 µM: -7%

## CC(C)n1c(/C=C/[C@H](O)C[C@H](O)CC(=O)O)c(-c2ccc(F)cc2)c2ccccc21 [PCM-0090402]
[1]
  inhibition at 10 µM: 15.9%

## CC[C@@H](C)Nc1cc(C(=O)NC2C[C@H]3CC[C@@H](C2)N3c2ccc(C(=O)C3CC3)cn2)c(C)cc1C(N)=O (stereo partly drawn) [PCM-0215196]
[1]
  inhibition at 10 µM: -0.8%
